Data on six compounds can be found in US11242337B2, “Compounds useful for treating gastrointestinal tract disorders” (Ardelyx, Inc., priority 2017, dated 2022).

One assay concerns gastrointestinal transit. Briefly: Restoration of gastrointestinal motility in opioid induced constipation (loperamide). In kind it is in vivo, mice. As to conditions: loperamide s.c., Evans Blue small intestinal transit 30 minutes. As for the experimental part: Approximately eight-week old, female, CD1 […] are purchased from Envigo (Livermore, Calif.), are housed 4 per cage and acclimated for at least 48 hours before study initiation. Animals are fed standard laboratory rodent chow Harlan Teklad Global 2018 (Madison, Wis.). Animals have ad libitum access to food and water for the duration of the acclimation period and are maintained in a temperature and humidity controlled room on a standard light/dark cycle of 6 AM to 6 PM. Following an overnight fast, with free access to water, animals are dosed by oral gavage with varying doses of test compound or vehicle (3 mM HCl, 0.01% Tween80), at a dose volume of 5 mL/kg. […] For an individual animal, the length travels by the Evans Blue dye front is divided by the length of the whole small intestine, measured from the pylorus to the cecum, and multiplied by 100, to provide the distance of the small intestine travelled by the dye as a percentage.

The subject of assay [1] is absorption of sodium from the intestinal lumen. The assay can be described thus: Inhibition of intestinal sodium absorption in rats. In kind it is in vivo, Sprague Dawley rats. As to conditions: 13-hours post-dose; for response vs control in vivo at 0.03 mg/kg / response vs control in vivo at 0.1 mg/kg / response vs control in vivo at 0.3 mg/kg: Rattus norvegicus, Sprague Dawley rats, read-out: Urinary Na (% of Vehicle, out/in); for response vs control in vivo at 0.03 mg/kg: oral gavage 0.03 mg/kg; for response vs control in vivo at 0.1 mg/kg: oral gavage 0.1 mg/kg; for response vs control in vivo at 0.3 mg/kg: oral gavage 0.3 mg/kg; for FFS (1-5): rats, group median fecal form score, 1 normal pellet to 5 liquid fecal streams. As for the experimental part:
Urinary sodium excretion and fecal form were measured to assess the ability of selected example compounds to inhibit the absorption of sodium from the intestinal lumen. Eight-week old, male, Sprague Dawley rats were purchased from Envigo (Livermore, Calif.), were housed 2 per cage and acclimated for at least 48 hours before study initiation. Animals were fed. Harlan Teklad Global TD.160470 rodent chow (Madison, Wis.), standard laboratory rodent chow Harlan Teklad Global 2018 with the addition of 0.4% inorganic phosphorous. Animals had ad libitum access to food and water for the duration of the study and were maintained in a temperature and humidity controlled room on a standard light/dark cycle of 6 AM to 6 PM. On the day of study initiation, rats (n=5/group) were dosed by oral gavage with test compound or vehicle (3 mM HCl, 0.01% Tween80) at a dose volume of […]. Immediately after dose administration animals were placed in individual metabolic cages. At 13-hours post-dose, urine samples were collected and fecal form was assessed. In addition, the weight of food consumed over the 13-hour period was measured and recorded. Fecal forms were scored according to a common scale associated with increasing fecal water to the wettest observation in the cage's collection funnel (1, normal pellet; 2, pellet adhering to sides of collection funnel due to moisture; 3, loss of normal pellet shape; 4, complete loss of shape with a blotting pattern; 5, liquid fecal streams evident). Fecal form score (FFS) was calculated for each group as the median of each individual rat's FFS within the group and reported in Table 7. Fecal samples were dried using a lyophilizer for at least 3 days, following which dry weight was recorded and fecal fluid content was calculated based on the difference between the wet and dry stool weights. Fecal fluid content was calculated as a change from the vehicle group mean. For urine samples, the volumes were determined gravimetrically. Urine samples were analyzed on an ion chromatography system (Thermo Fisher ICS-3000 or ICS-5000+) coupled with conductivity detectors. Chromatographic separation of cations was performed using an IonPac CS12A (Thermo Fisher) 2×250 mm analytical column with an isocratic elution using 25 mM methanesulfonic acid. Concentrations were interpolated from a standard curve (prepared in 10 mM HCl) for sodium based on retention time and peak area. Thirteen-s-hour urinary sodium excretion (mg/13-hours) was calculated by multiplying urinary sodium concentration by 13-hour urine volume. The urinary sodium excretion of compound treatment was normalized to dietary sodium intake and expressed as a percentage of the vehicle mean.

For the compound `N#Cc1cc(Cl)cc2c1C[C@H](N1CCNCC1)[C@H]2Oc1ccc(S(=O)(=O)NCCOCCOCCNC(=O)NCCCCNC(=O)NCCOCCOCCNS(=O)(=O)c2ccc(O[C@H]3c4cc(Cl)cc(C#N)c4C[C@@H]3N3CCNCC3)c(F)c2)cc1F` [Example 43, 3-[2-(2-[2-[(4-[[(1S,2S)-6-Chloro-4-cyano-2-(piperazin-1-yl)-2,3-dihydro-1H-inden-1-yl]oxy]-3-fluorobenzene)sulfonamido]ethoxy]ethoxy)ethyl]-1-[4-([[2-(2-[2-[(4-[[(1S,2S)-6-chloro-4-cyano-2-(piperazin-1-yl)-2,3-dihydro-1H-inden-1-yl]oxy]-3-fluorobenzene)sulfonamido]ethoxy]ethoxy)ethyl]carbamoyl]amino)butyl]urea; bis(trifluoroacetic acid)], the results for the “% Restoration of Transit” value in the assay on gastrointestinal transit (oral gavage 1.5 mg/kg), in the assay on gastrointestinal transit (oral gavage 5 mg/kg) and with gastrointestinal transit (oral gavage 15 mg/kg) were “B (20-40%)”, “A (<20%)” and “A (<20%)”, respectively.

Take `N#Cc1cc(Cl)cc2c1C[C@H](N1CCNCC1)[C@H]2Oc1ccc(S(=O)(=O)N[C@H]2CCN(CCOCCNC(=O)NCCCCNC(=O)NCCOCCN3CC[C@H](NS(=O)(=O)c4ccc(O[C@H]5c6cc(Cl)cc(C#N)c6C[C@@H]5N5CCNCC5)cc4)C3)C2)cc1` [Example 107, 4-([(1S,2S)-6-Chloro-4-cyano-2-(piperazin-1-yl)-2,3-dihydro-1H-inden-1-yl]oxy)-N—[(S)-1-(20-[(S)-3-([4-([(1S,2S)-6-chloro-4-cyano-2-(piperazin-1-yl)-2,3-dihydro-1H-inden-1-yl]oxy)phenyl]sulfonamido)pyrrolidin-1-yl]-7,14-dioxo-3,18-dioxa-6,8,13,15-tetraazaicosyl)pyrrolidin-3-yl]benzenesulfonamide; tetra(trifluoroacetate)]: in assay [1], the response vs control in vivo at 0.03 mg/kg lay within 40 to 70%, the response vs control in vivo at 0.1 mg/kg fell in the range of 40 to 70% and the response vs control in vivo at 0.3 mg/kg is under 40%. Also, the “FFS (1-5)” value in assay [1] (0.03 mg/kg) is 3. Also, in assay [1] (0.1 mg/kg), the “FFS (1-5)” value amounted to 3. The “FFS (1-5)” value in assay [1] (0.3 mg/kg) was found to be 3.

Turning to `N#Cc1cc(Cl)cc2c1C[C@H](N1CCNCC1)[C@H]2Oc1ccc(S(=O)(=O)N2CCC(NC(=O)CCCNC(=O)NCCCCNC(=O)NCCCC(=O)NC3CCN(S(=O)(=O)c4ccc(O[C@H]5c6cc(Cl)cc(C#N)c6C[C@@H]5N5CCNCC5)cc4)CC3)CC2)cc1` [Example 120, N^1,N^18-Bis(1-([4-([(1S,2S)-6-chloro-4-cyano-2-(piperazin-1-yl)-2,3-dihydro-1H-inden-1-yl]oxy)phenyl]sulfonyl)piperidin-4-yl)-6,13-dioxo-5,7,12,14-tetraazaoctadecanediamide], in assay [1], the response vs control in vivo at 0.03 mg/kg is over 70%, the response vs control in vivo at 0.1 mg/kg was in the range of 40 to 70% and the response vs control in vivo at 0.3 mg/kg is under 40%. Moreover, the “FFS (1-5)” value in assay [1] (0.03 mg/kg) was determined as 2. Besides, in assay [1] (0.1 mg/kg), the “FFS (1-5)” value came out at 3. Also, the “FFS (1-5)” value in assay [1] (0.3 mg/kg) came out at 4.

Consider `CN(C)[C@H]1CCCN([C@H]2Cc3c(C#N)cc(Cl)cc3[C@@H]2Oc2ccc(S(=O)(=O)NCCOCCOCCNC(=O)NCCCCNC(=O)NCCOCCOCCNS(=O)(=O)c3ccc(O[C@H]4c5cc(Cl)cc(C#N)c5C[C@@H]4N4CCC[C@H](N(C)C)C4)cc3)cc2)C1` [Example 122, 4-([(1S,2S)-6-Chloro-4-cyano-2-[(S)-3-(dimethylamino)piperidin-1-yl]-2,3-dihydro-1H-inden-1-yl]oxy)-N-[26-([4-([(1S,2S)-6-chloro-4-cyano-2-[(S)-3-(dimethylamino)piperidin-1-yl]-2,3-dihydro-1H-inden-1-yl]oxy)phenyl]sulfonamido)-10,17-dioxo-3,6,21,24-tetraoxa-9,11,16,18-tetraazahexacosyl]benzenesulfonamide], for which, in assay [1], the response vs control in vivo at 0.03 mg/kg is over 70%, the response vs control in vivo at 0.1 mg/kg is over 70% and the response vs control in vivo at 0.3 mg/kg was in the range of 40 to 70%. The “FFS (1-5)” value in assay [1] (0.03 mg/kg) is on record as 2. Also, the “FFS (1-5)” value in assay [1] (0.1 mg/kg) stood at 2. The “FFS (1-5)” value in assay [1] (0.3 mg/kg) turned out to be 3.

On to `C[C@@H]1CN([C@H]2Cc3c(C#N)cc(Cl)cc3[C@@H]2Oc2ccc(S(=O)(=O)N[C@@H]3CCN(CCOCCNC(=O)NCCCCNC(=O)NCCOCCN4CC[C@@H](NS(=O)(=O)c5ccc(O[C@H]6c7cc(Cl)cc(C#N)c7C[C@@H]6N6CCN[C@H](C)C6)cc5)C4)C3)cc2)CCN1` [Example 133, 4-([(1S,2S)-6-Chloro-4-cyano-2-[(R)-3-methylpiperazin-1-yl]-2,3-dihydro-1H-inden-1-yl]oxy)-N—[(R)-1-(20-[(R)-3-([4-([(1S,2S)-6-chloro-4-cyano-2-[(R)-3-methylpiperazin-1-yl]-2,3-dihydro-1H-inden-1-yl]oxy)phenyl]sulfonamido)pyrrolidin-1-yl]-7,14-dioxo-3,18-dioxa-6,8,13,15-tetraazaicosyl)pyrrolidin-3-yl]benzenesulfonamide; bis(trifluoroacetic acid)], for which the response vs control in vivo at 0.03 mg/kg in assay [1] was over 70%. Also, the response vs control in vivo at 0.1 mg/kg in assay [1] was under 40%. Besides, in assay [1], the response vs control in vivo at 0.3 mg/kg is under 40%. Besides, the “FFS (1-5)” value in assay [1] (0.03 mg/kg), in assay [1] (0.1 mg/kg) and in assay [1] (0.3 mg/kg) was 3 in each case.

For the compound `N#Cc1cc(Cl)cc2c1C[C@H](N1CCNCC1)[C@H]2Oc1ccc(S(=O)(=O)N[C@H]2CCN(C(=O)CCCNC(=O)NCCCCNC(=O)NCCCC(=O)N3CC[C@H](NS(=O)(=O)c4ccc(O[C@H]5c6cc(Cl)cc(C#N)c6C[C@@H]5N5CCNCC5)cc4)C3)C2)cc1` [Example 143, 4-([(1S,2S)-6-Chloro-4-cyano-2-(piperazin-1-yl)-2,3-dihydro-1H-inden-1-yl]oxy)-N—[(S)-1-(18-[(S)-3-([4-([(1S,2S)-6-chloro-4-cyano-2-(piperazin-1-yl)-2,3-dihydro-1H-inden-1-yl]oxy)phenyl]sulfonamido)pyrrolidin-1-yl]-6,13,18-trioxo-5,7,12,14-tetraazaoctadecanoyl)pyrrolidin-3-yl]benzenesulfonamide], in assay [1], the response vs control in vivo at 0.03 mg/kg lay within 40 to 70%, the response vs control in vivo at 0.1 mg/kg was under 40% and the response vs control in vivo at 0.3 mg/kg was under 40%. Also, the “FFS (1-5)” value in assay [1] (0.03 mg/kg) came out at 3. The “FFS (1-5)” value in assay [1] (0.1 mg/kg) was 3. In assay [1] (0.3 mg/kg), the “FFS (1-5)” value is 4.
